Assay results: US20090023667A1 (priority 2005, published 2009)
Read-outs that look alike come from different tables or passages of the source.

What was measured:
Rhizoctonia solani [1] = assay: Test Example 4: control test on paddy rice sheath blight, spraying; assay type: in vivo; details: 60 ppm
Experimental: A compound solution of a prescribed concentration was sprayed on three 1/5000a rice pots (cultivar: Koshihikari; 4 leaf stage). After one day from the spraying, Rhizoctonia solani cultured on a rice chaff/bran medium was inoculated on the basal of the rice plant. After 10 days from the inoculation, the extended lesion length of sheath blight of the whole stem was examined. The control value was calculated according to the following equation (3 replications).
(§1) Control Value=(1−average lesion length per a stem in the treated plot/average lesion length per a stem in the untreated plot)×100

Pyricularia oryzae [2] = assay: whole plant or invertebrate; assay type: in vivo; details: for Control value: 60 ppm; for pest or weed control at 60 ppm: Pyricularia oryzae, 168 h, read-out: Control value
Pyricularia oryzae [3] = assay type: in vivo
Rhizopus chinensis = assay: Test Example 8: control test on seedling blight (Rhizopus sp), irrigation; assay type: in vivo; details: irrigation 500 ml per box
Experimental: 150 g of rice seeds (cultivar: Nihonbare) per a box was sowed in a commercial nursery box. After the sowing, the box was treated by irrigation with a compound solution which was diluted to the prescribed concentration at a ratio of 500 ml per a box before covering the seeds with soil. Infected soil, which was made by adding sterilized water to Rhizopus chinensis cultured on a PDA medium and pulverizing whole medium and mixing to a commercial soil, was used for a bed soil. For covering the seeds, a commercial soil was used as it was. After covering the seeds with soil, the seeds were incubated at 32 degree centigrade for 2 days and then grown in a greenhouse.
After 18 days from the sowing, the severity index for 300 seedlings per each compound was examined in the following criteria. The control value was calculated according to the following equation from the average severity obtained by averaging the severity index of each seedling.
Severity index 0: No lesion • 1: Root browning or fat root observed • 2: Defective growth • 3: Withered to death
(§2) Control Value=(1−average severity in the treated plot/average severity in the untreated plot)×100

rice Bakanae disease = assay: Test Example 7: control test on rice Bakanae disease, seed immersion; assay type: in vivo; details: seed immersion 24 hours
Experimental: 150 g of dry rice seeds of naturally infected with rice Bakanae disease (cultivar: Nihonbare) was immersed in a compound solution which was diluted with water to have a prescribed concentration at a volume ratio of 1:1 for 24 hours (liquid temperature; 20 degree centigrade) and air-dried. Subsequently, the seeds were soaked in water at 15 degree centigrade for 4 days and subjected to a sprouting in water at 30 degree centigrade for 24 hours, and then sowed in a nursery box. After the sowing, the seeds were incubated at 30 degree centigrade for 2 days and grown in a greenhouse. After 21 days from the sowing, the number of seedlings showing symptoms of Bankanae disease for 300 seedlings per each chemical was examined. The control value was calculated according to the following equation.
(§3) Control Value=(1−number of infected seedlings in the treated plot/number of infected seedlings in the untreated plot)×100

Rhizoctonia solani [4] = assay: Test Example 5: control test on paddy rice sheath blight, submerged application; assay type: in vivo; details: submerged application of granule
Experimental: (§4) After 14 days from the treatment, Rhizoctonia solani cultured on a rice chaff/bran medium was inoculated on the basal of the rice plant. After 10 days from the inoculation, the extended lesion length of sheath blight of the whole stem was examined. The control value was calculated according to the following equation (3 replications).
as §1

Rhizoctonia solani [5] = assay: Test Example 6: control test on paddy rice sheath blight, nursery box application; assay type: in vivo; details: nursery box application of granule
Experimental: as §4, with “30” for “14”
as §1

Pyricularia oryzae [6] = assay type: in vivo; remark: listed apart in the source
Pythium sp = assay: Test Example 9: control test on seedling blight (Pythium sp), irrigation; assay type: in vivo; details: irrigation 500 ml per box
Experimental: 150 g of rice seeds of rice (cultivar: Nihonbare) per a box was sowed on a commercial nursery box. After the sowing, the box was treated by irrigation with a compound solution which was diluted to the prescribed concentration at a ratio of 500 ml per a box before covering the seeds with soil. Infected soil, which was made by adding sterilized water to Pythium sp cultured on a PDA medium and pulverizing whole medium and mixing to a commercial soil, was used for a bed soil. After covering the seeds with soil, the seeds were incubated at 30 degree centigrade for 2 days and then arranged under a condition of 5 degree centigrade for 2 days to enhance disease emergence. After the low temperature treatment, the seeds were grown in a greenhouse.
as §3

Pyricularia oryzae [7] = assay type: in vivo; remark: listed apart in the source
[8] = test system: bacterial seedling blight; assay: Test Example 10: control test on bacterial seedling blight, seed immersion; assay type: in vivo; details: seed immersion 24 hours
Experimental: 150 g of dry rice seeds of naturally infected with bacterial seedling blight (cultivar: Nihonbare) was immersed in a compound solution which was diluted with water to have a prescribed concentration at a volume ratio of 1:1 (liquid temperature; 20 degree centigrade) for 24 hours and air-dried. Subsequently, the seeds were soaked in water at 15 degree centigrade for 4 days and subjected to a sprouting in water at 30 degree centigrade for 24 hours, and then sowed in a nursery box. After the sowing, the seeds were incubated at 30 degree centigrade for 2 days and grown in a greenhouse. After 21 days from the sowing, the severity index for 300 seedlings per each compound was examined on the basis of the following criteria, and the control value was calculated according to the following equation from the average severity obtained by averaging the severity index of each seedling.
Severity index 0: healthy seedling • 1: yellowing or etiolated seedling • 2: dead seedling (withered)
as §2

clubroot = assay: Test Example 11: control test on clubroot of cabbages, soil treatment; assay type: in vivo, Plasmodiophora brassicae; details: dust formulation mixed in soil, 60 gai/10a
Experimental: A dust formulation in a prescribed amount was mixed in soil and cabbage seedlings (cultivar: Shiki-dori) were planted in the field where was recognized to be infected by clubroot. After 60 days from the treatment, plants were picked out, and clubroot formation was examined according to the degree of severity. The control value was calculated according to the following equation from the average severity obtained by averaging the severity index in each plot.
Severity index 0: No clubroot formed • 1: Cluroot was formed at a portion of from not less than 1% to less than 25% of the whole root • 2: Cluroot was formed at a portion of from not less than 25% to less than 50% of the whole root • 3: Cluroot was formed at a portion of from not less than 50% to less than 75% of the whole root • 4: Cluroot was formed at a portion of not less than 75% of the whole root
as §2

[9] = rice blast, sprayed at 60 ppm active ingredient, lesions after 7 days

SMILES: CC(C)C(CNC(=O)c1cc2ccccc2s1)NC(=O)OCC(F)(F)F (stereo not shown) [Compound 34]
- Control value (Rhizoctonia solani [1]): 7
- Control value (Pyricularia oryzae [2]): 97
- Effect (class of control value) (Pyricularia oryzae [3]; in vivo): A (key: A: Not less than 80%; B: Not less than 50% to less than 80%; C: Less than 50%)
- Control value (Rhizopus chinensis; 60 ppm): 3

SMILES: CCC(C)C(CNC(=O)c1cc2ccccc2o1)NC(=O)OCC(F)(F)F (stereo not shown) [Compound 32]
- Control value (Rhizoctonia solani [1]): 5
- Control value (Pyricularia oryzae [2]): 95
- Effect (class of control value) (Pyricularia oryzae [3]; in vivo): A (key: A: Not less than 80%; B: Not less than 50% to less than 80%; C: Less than 50%)
- Control value (rice Bakanae disease; 60 ppm): 12

SMILES: CNC(=O)/C(=N/OC)c1ccccc1CO/N=C(C)/C(=N/OC)C(/C)=N/OC [Oryzastrobin, reference compound]
- Control value (Rhizoctonia solani [4]; 100 gai/10a): 95
- Control value (Rhizoctonia solani [5]; 3.5 gai/box): 94
- Control value (Pyricularia oryzae [6]; rice blast, submerged application of granule, 100 gai/10a): 99

SMILES: CCC(C)C(CNC(=O)c1nc2ccccc2s1)NC(=O)OCC(F)(F)F (stereo not shown) [Compound 33]
- Control value (Rhizoctonia solani [1]): 6
- Control value (Pyricularia oryzae [2]): 96
- Effect (class of control value) (Pyricularia oryzae [3]; in vivo): A (key: A: Not less than 80%; B: Not less than 50% to less than 80%; C: Less than 50%)
- Control value (rice Bakanae disease; 60 ppm): 8

SMILES: N#Cc1c[nH]cc1-c1cccc2c1OC(F)(F)O2 [Fludioxonil, reference compound]
- Control value (rice Bakanae disease; 250 ppm): 99

SMILES: CCCCNC(=O)n1c(NC(=O)OC)nc2ccccc21 [Benomyl, reference compound]
- Control value (rice Bakanae disease; 1000 ppm): 98

SMILES: C=C(Cl)COC(=O)NC(CNC(=O)c1ccc(C)cc1)C(C)C (stereo not shown) [Compound 15]
- Control value (Rhizoctonia solani [1]): 4
- Control value (Pythium sp; 60 ppm): 4
- Control value (Pyricularia oryzae [7]; in vivo): 95
- Control value (Rhizoctonia solani [4]; 225 gai/10a): 5
- Control value (Pyricularia oryzae [2]): 94
- Control value (Rhizoctonia solani [5]; 7.5 gai/box): 3
- Control value (Pyricularia oryzae [6]; in vivo): 95
- Effect (class of control value) (Pyricularia oryzae [3]; in vivo): A (key: A: Not less than 80%; B: Not less than 50% to less than 80%; C: Less than 50%)

SMILES: Cc1ccc(C(=O)NC(CNC(=O)OCC(F)(F)F)C(C)C)cc1 (stereo not shown) [Compound 6, N-(2,2,2-trifluoroethyloxycarbonyl)-N′-(4-methylbenzoyl)-3-methyl-1,2-butanediamine]
- Control value (Rhizoctonia solani [1]): 3
- Control value (Pyricularia oryzae [7]; rice blast, nursery box application of granule, 7.5 gai/box): 96
- Control value (Rhizoctonia solani [4]; 225 gai/10a): 5
- pest or weed control at 60 ppm (Pyricularia oryzae [2]): 97%
- Control value (Rhizoctonia solani [5]; 7.5 gai/box): 4
- Control value (Pyricularia oryzae [6]; rice blast, submerged application of granule, 225 gai/10a): 95
- Effect (class of control value) (Pyricularia oryzae [3]; [9]): A (Not less than 80%)

SMILES: Cc1cc(O)no1 [Hydroxyisoxazole, reference compound]
- Control value (Pythium sp; 800 ppm): 90

SMILES: N#Cc1c(Cl)c(Cl)c(Cl)c(C#N)c1Cl [TPN, reference compound]
- Control value (Rhizopus chinensis; 800 ppm): 87

SMILES: CC(C)C(CNC(=O)c1cc2ccccc2o1)NC(=O)OCC(F)(F)F (stereo not shown) [Compound 28]
- Control value ([8]; 60 ppm): 6
- Control value (Rhizoctonia solani [1]): 6
- Control value (Pyricularia oryzae [7]; in vivo): 96
- Control value (Rhizoctonia solani [4]; 225 gai/10a): 6
- Control value (Pyricularia oryzae [2]): 97
- Control value (Rhizoctonia solani [5]; 7.5 gai/box): 5
- Control value (Pyricularia oryzae [6]; in vivo): 96
- Effect (class of control value) (Pyricularia oryzae [3]; in vivo): A (key: A: Not less than 80%; B: Not less than 50% to less than 80%; C: Less than 50%)

SMILES: CCn1cc(C(=O)O)c(=O)c2cc3c(cc21)OCO3 [Oxolinic acid, reference compound]
- Control value ([8]; 500 ppm): 89

SMILES: O=[N+]([O-])c1ccc(NS(=O)(=O)c2ccc(Cl)c(C(F)(F)F)c2)c(Cl)c1 [Flusulfamide]
- Control value (clubroot): 93

SMILES: CC(C)NC(=O)N1CC(=O)N(c2cc(Cl)cc(Cl)c2)C1=O [Iprodione, reference compound]
- Control value (Rhizopus chinensis; 1000 ppm): 89

SMILES: Cc1ccc(C(=O)NC(CNC(=O)OC2CCCCC2Cl)C(C)C)cc1 (stereo not shown) [Compound 17, N-(2-chlorocyclohexyloxycarbonyl)-N′-(4-methylbenzoyl)-3-methyl-1,2-butanediamine]
- Control value (Rhizoctonia solani [1]): 5
- pest or weed control at 60 ppm (Pyricularia oryzae [2]): 95%
- Effect (class of control value) (Pyricularia oryzae [3]; [9]): A (Not less than 80%)
- Control value (Rhizopus chinensis; 60 ppm): 3
